# Data as given in patent publication US7728105B2, “Peptides impairing PBX dependent gene regulation” (St. George's Hospital Medical School, priority 2002, dated 2010).
# No end group written: not given here.
# Columns and labels:
# [1] = system: PBX1, 2 and 3 association with HOX proteins; assay: Cross-linking and Western blot of PBX proteins in KG1a cells (Example 2); assay type: cell-based, human; settings: 24 hours, 1 μM peptide, EDC cross-linking
# Method: HXP and control peptides were as described in Example 1. KG1a cells were grown as described in Example 1. KG1a cells were cultured for 24 hours without treatment, or in the presence of 1 μM HXP peptide or control peptide. The cells were harvested and lysed. One aliquot of the cells was subject to cross-linking. Frozen cells were lysed using standard techniques and […] of lysate was incubated for 30 minutes at room temperature in 4 mM 1-ethyl-3-[3-(dimethyl-amino)propyl]carbodimide (EDC), 4 mM sulpho-NHS, 20 mM HEPES (pH 7.5), 5 mM MgCl2, and 0.03% (w/v) […] to cross-link non-covalently associated proteins. The reaction was stopped by the addition of ammonium acetate to a final concentration of 50 mM. The other aliquot was frozen without cross-linking.
# Proteins were extracted from the cells of both aliquots by standard techniques and separated by gel electrophoresis. The gels were probed by Western blot with an antibody raised against PBX1, 2 and 3 (sc-888, Santa Cruz Inc. USA) or an anti-beta actin antibody (sc-1615, Santa Cruz Inc. USA).
# [2] = system: malignant cell lines; assay: Proliferation of malignant cell lines over seven days in culture; assay type: cell-based, human; design: effect of increased dose on proliferation of malignant cell lines: dose or concentration left out as unconfirmed; settings: ten fold increase in dose
# Method: A number of cell lines representing different malignancies were grown in culture for seven days, and HXP peptide or the control peptide CXP were added to a final concentration of 20 μg/ml on day 3. The bars represent the fold increase of each cell line over the seven days; the empty, dashed bars indicate the CXP peptide treated cells, whilst the solid bars indicate the addition of HXP peptide. Error bars represent the standard error the mean, and n is the number of experiments performed. The cell lines used were: AML—KG1a; Bladder—HT; Breast—SKBR3; Cervical—HeLa; Colon—Colo41; Gastric—MKN-45; Large cell lung cancer—MES; Melanoma—DX3; Ovarian—1847; Pancreatic—Panc-Tu1; Prostate—LNCAP; Renal—HT1376; Small cell lung cancer—NCI-h510A. The change in the expression of the HOX genes expressed by each cell line was assessed by RT-PCR on RNA extracted from the cells at the end of seven days. ‘HOX gene inactivated’ means that the level of expression of each of the listed HOX genes was at least five fold lower in the HXP peptide treated cells compared to the control. *Analysis not yet complete.
# A number of cell lines representing different malignancies were grown in culture for seven days, and HXP peptide or the control peptide CXP were added to a final concentration of 200 μg/ml on day 3. The bars represent the fold increase of each cell line over the seven days; the empty, dashed bars indicate the CXP peptide treated cells, whilst the solid bars indicate the addition of HXP peptide. Error bars represent the standard error the mean, and n is the number of experiments performed. The cell lines used were: Bladder—HT; Cervical—HeLa; Melenoma—DX3; Pancreatic—Panc-Tu1.
# Solid tumour cell lines (Cancer Research UK) were seeded at 4×10^4 cells/ml, in a liquid culture system made of appropriate medium (see table, Sigma-Aldrich, UK) supplemented with 10% FCS (Sigma Aldrich) and penstrep (1% Sigma). All cell lines were grown with HXP peptide (as in Example 3, 20 μg/ml or 200 μg/ml) or control peptide CXP (20 μg/ml or 200 μg/ml).
# KG1a, KG1, HL60 and U937 cell lines (EACC, UK) were seeded at 5×10^4 cells/ml, in a liquid culture system made of RPMI-1640 medium (Life Technologies, UK) supplemented with 10% FCS (Sigma Aldrich) and gentamicin (50 μg/ml Life Technologies) in triplicates. All cell lines were grown with HXP peptide peptide (20 μg/ml) or control peptide (20 μg/ml).
# Cell lines were cultured for various time points at 37° C., 5% CO2 in humidified atmosphere and enumerated at various time points.
# [3] = system: AC133+ cells; assay: Short-term ex-vivo AC133+ cell expansion culture with HXP peptide, trypan blue cell count; assay type: cell-based, human; settings: HXP peptide withdrawn at 7 days, Hox B4 protein 20 μg/ml added
# Method: Umbilical Cord Blood (UCB) specimens were collected from full-term deliveries scheduled for elective caesarian sections following hospital ethical regulations.
# Samples were diluted 1 in 4 in PBS supplemented with a citrate-based anti-coagulant (0.6% ACD-A, Baxter, France) and Bovine Serum Albumin (0.5% fraction V, Sigma Aldrich, UK) at pH=7.4 and referenced as “ACD-A buffer”. Diluted UCB was carefully overlaid in a 1:4 ratio onto a research grade Ficoll-Paque solution (d:1.077 g/cm^3, Pharmacia Biotech, Sweden) prior to Centrifugation (400 g, 30 minutes, 22° C.). The mononuclear cells (MNC) layer was extracted, washed twice in ACD-A Buffer, pelleted (400 g, 10 minutes) before resuspending in ACD-A buffer and cell aliquots taken for cell viability/enumeration using trypan blue (Sigma Aldrich).
# AC133+ cells were obtained from MNC after immunomagnetic separation using the AC133 mini-MACS selection kit (Miltenyi Biotec, Germany): labelling volume 500 μl/10^8 cells in ACD-A buffer containing Fc Receptor-blocking reagent (100 μl, 5 min incubation, 4° C.) before adding colloidal super-paramagnetic MACS MicroBeads conjugated to monoclonal mouse anti-human AC133/1 antibody (100 μl IgG1 isotype, 25 min incubation, 4° C.). Cells were then washed (5 ml ACD-A buffer, 400 g, 10 min, 4° C.) before resuspended cells in 500 μl ACD-A buffer were applied to a chilled MACS positive selection column (MS+/RS+) on a magnet. The column was rinsed with cool ACD-A buffer (4×500 μl) and the AC133− cell population retained at 4° C. After magnet removal AC133+ cells were eluted with 1 ml of cold ACD-A buffer. The AC133+ cell fraction was reapplied to a new column, prior to cell enumeration and viability assays.
# AC133+ cells were seeded in duplicate in liquid culture system at 2-4×10^4 cells/ml. […] Cultured cells were then counted at various time points using trypan blue exclusion method described above.
# [4] = comparison with other peptide based pharmaceuticals; cited from earlier work
# [5] = Stability in human serum at 37° C., denaturing PAGE and silver stain
# Method: 30 μg of HXP(10) or HXP peptide were incubated in 50 μl of human serum at 37° C. for the times shown. Samples were run on a denaturing PAGE and silver stained.
# [6] = system: PBX/HOX dimers; assay: Western blotting of PBX and PBX/HOX dimers in CD133+ cells (Example 3); assay type: cell-based, human; settings: 20 μg/ml, EDC cross-linking
# Method: CD133+ cells (another name for AC133+ cells) were seeded in duplicate at 4×10^4 cells/ml in IMDM (Life Technologies), 10% FCS (Sigma Aldrich) and gentamycin (50 μg/ml Life Technologies) and Thrombopoietin (TPO) 10 ng/ml, Flt3-Ligand (FL) 50 ng/ml & c-KitL (K) 20 ng/ml), all obtained from R and D systems Ltd., UK. (Forraz et al., 2002). The HXP peptide (N-term: WYPWMKKHHRQIKIWFQNRRMKWKK: C-term; Eurogentec, Belgium) and control CXP peptide (N-term: WCCLADRHGRQIKIWFQNRRMKWKK: C-term; Eurogentec, Belgium) were added to culture medium at a concentration of 20 μg/ml. To withdraw peptides from culture, cells were washed twice in IMDM or RPMI and reseeded at prewash cell densities. Primary cells were cultured for 3 weeks at 37° C., 5% CO2 in humidified atmosphere and enumerated by a […] exclusion method with a heamocytometer.
# Protein was extracted from HXP-treated or CXP-treated CD133+ cells (20 μg/ml). C-20 antibody that recognises all three human PBX gene proteins (sc-888, Santa Cruz Biotechnology Inc., USA; Monica et al., 1991). Protein cross linking was performed with 2 mM 1-ethyl-3-[3-(dimethylamino)propyl]carbodiimide (EDC) (Pierce Biotechnology, USA), in cell lysates diluted 1:10 in conjugation buffer (0.1M 2-[N-morpholino]ethane sulphonic acid, pH 5). […]
substance,measurement,setting,value
WAPWEDDHHRQIKIWFQNRRMKWKK (Control Peptide) [reference compound],association of PBX proteins with other proteins (HOX proteins),[1],associated with-other proteins
same,effect of increased dose on proliferation of malignant cell lines,[2],no significant affect on proliferation
HOX B4: recombinant full length Xenopus laevis sequence,AC133+ cell proliferation after HXP peptide withdrawal and co-stimulation with HOX B4,[3],reverted to near control levels
low molecular weight heparin,serum half life,[4],thirty
"WYPWMKKHHR [HXP4(10), WYPWMKKHHR]",half-life,[5],~4 h
"WCCLADRHGRQIKIWFQNRRMKWKK (WCCLADRHGRQIKIWFQNRRMKWKK) [CXP, reference compound]",binding of PBX to other proteins / formation of PBX/HOX dimers,[6],not
